Earlier results in US20190365933A1, “SOLVENT-FREE GADOLINIUM CONTRAST AGENTS” (Inventure, LLC, priority 2016, published 2019).
Like-named read-outs stand apart in the source and are kept apart here.

Row | Structure (SMILES) | Conditional stability constant at pH 7.4 (log Keff) | Thermodynamic stability constants pH 14 (log KGdL) (pH 14) | Conditional stability constant at pH 7.4 (log Keff) (complex of gadolinium with the named ligand, log value) | Thermodynamic stability constants pH 14 (log KGdL) (complex of gadolinium with the named ligand, pH 14, ligand entirely deprotonated, log value)
1 | O=C(O)CNC(=O)CN1CCN(CC(=O)NCC(=O)O)CCN(CC(=O)NCC(=O)O)CCN(CC(=O)NCC(=O)O)CC1 [DOTA-(gly)4] | 12.7 | 14.54 | – | –
2 | O=C(O)CN1CCN(CC(=O)O)CCN(CC(=O)O)CCN(CC(=O)O)CC1 [DOTA, 1,4,7,10-tetraazacyclododecane-1,4,7,10-tetraacetic acid] | – | – | 17.2 | 24.7
